Results as given in the supplement of paper PMC13380429.
Structures can show the parent of a compound that is named as a salt.

Columns and labels:
Settings in all cases: 72 h
Caco-2 [1] = assay: drug sensitivity score (DSS) for viability; higher = more toxic; extreme values may be limits of the assay
Vero E6 [2] = assay: as above
U2OS [3] = assay: as above
HepG2 [4] = assay: as above
Calu-3 [5] = assay: as above
Caco-2 [6] = assay: relative viability EC50 (midpoint between 100% and the lowest measured viability); higher = less toxic
Vero E6 [7] = assay: as above
U2OS [8] = assay: as above
HepG2 [9] = assay: as above
Calu-3 [10] = assay: as above
Caco-2 [11] = assay: cell viability relative to DMSO; higher = less toxic
Vero E6 [12] = assay: as above
U2OS [13] = assay: as above
HepG2 [14] = assay: as above
Calu-3 [15] = assay: as above

Row | Compound | drug sensitivity score (Caco-2 [1]) | drug sensitivity score (Vero E6 [2]) | drug sensitivity score (U2OS [3]) | drug sensitivity score (HepG2 [4]) | drug sensitivity score (Calu-3 [5]) | relative viability EC50 (Caco-2 [6]) | relative viability EC50 (Vero E6 [7]) | relative viability EC50 (U2OS [8]) | relative viability EC50 (HepG2 [9]) | relative viability EC50 (Calu-3 [10]) | cell viability (Caco-2 [11]; 1 nM) | cell viability (Caco-2 [11]; 10 nM) | cell viability (Caco-2 [11]; 100 nM) | cell viability (Caco-2 [11]; 1000 nM) | cell viability (Caco-2 [11]; 10000 nM) | cell viability (Vero E6 [12]; 1 nM) | cell viability (Vero E6 [12]; 10 nM) | cell viability (Vero E6 [12]; 100 nM) | cell viability (Vero E6 [12]; 1000 nM) | cell viability (Vero E6 [12]; 10000 nM) | cell viability (U2OS [13]; 1 nM) | cell viability (U2OS [13]; 10 nM) | cell viability (U2OS [13]; 100 nM) | cell viability (U2OS [13]; 1000 nM) | cell viability (U2OS [13]; 10000 nM) | cell viability (HepG2 [14]; 1 nM) | cell viability (HepG2 [14]; 10 nM) | cell viability (HepG2 [14]; 100 nM) | cell viability (HepG2 [14]; 1000 nM) | cell viability (HepG2 [14]; 10000 nM) | cell viability (Calu-3 [15]; 1 nM) | cell viability (Calu-3 [15]; 10 nM) | cell viability (Calu-3 [15]; 100 nM) | cell viability (Calu-3 [15]; 1000 nM) | cell viability (Calu-3 [15]; 10000 nM)
1 | O=C(Nc1cccc(Cl)c1)c1ccccn1 | 0 | 0 | 0 | 0 | 0 | > 10 µM | > 10 µM | > 10 µM | > 10 µM | > 10 µM | 87.9% | 102% | 98% | 96.8% | 102% | 107% | 102% | 107% | 99.3% | 103% | 102% | 104% | 99.8% | 108% | 101% | 111% | 100% | 105% | 97.3% | 107% | 94.5% | 95.8% | 95.9% | 114% | 102%
2 | O=C(Nc1cccnn1)N1CCC(=Cc2cccc(Oc3ccc(C(F)(F)F)cn3)c2)CC1 | 0.9 | 0 | 0 | 4.7 | 0.2 | > 10 µM | > 10 µM | > 10 µM | 2.33 µM | > 10 µM | 100% | 104% | 102% | 96.4% | 81.4% | 96.1% | 93.3% | 93.2% | 87.3% | 96.1% | 94.3% | 96.2% | 96.3% | 97.9% | 91.2% | 99.9% | 97.5% | 106% | 93.3% | 34.1% | 104% | 95.3% | 92% | 95.3% | 84.9%
3 | O=C(Nc1cnc(Cl)nc1)c1ccc(F)c(F)c1 | 0 | 0 | 0 | 0 | 0 | > 10 µM | > 10 µM | > 10 µM | > 10 µM | > 10 µM | 101% | 96.7% | 95% | 95.5% | 93.8% | 94.5% | 92.1% | 99.4% | 96.9% | 95.4% | 102% | 95.1% | 95.6% | 98% | 98.9% | 96.5% | 96.9% | 97.7% | 96.5% | 93.3% | 98.5% | 98.9% | 90.7% | 95.5% | 103%
4 | O=C1NN(C(=O)Nc2ccc(Br)cc2)[C@@H](c2ccccc2)[C@@H]1c1ccccc1 | 0 |  | 0 | 0 | 0.3 | > 10 µM |  | > 10 µM | > 10 µM | > 10 µM | 103% | 98.8% | 100% | 98.6% | 96.7% |  |  |  |  |  | 97.3% | 95.4% | 98.5% | 94.8% | 101% | 104% | 89.3% | 91.1% | 106% | 89.1% | 96.5% | 90.4% | 93.8% | 91.2% | 86%
5 | N=C(N)Nc1ccc(Cl)cc1 [4-chlorophenylguanidine] | 0 |  | 0 | 0 | 0 | > 10 µM |  | > 10 µM | > 10 µM | > 10 µM | 103% | 100% | 97% | 95.1% | 95.6% |  |  |  |  |  | 102% | 95.9% | 99.7% | 96.5% | 101% | 99.6% | 99.2% | 107% | 115% | 93.2% | 93% | 89.4% | 94.6% | 91.7% | 102%
6 | Nc1nc(NC2CC2)c2ncn([C@H]3C=C[C@@H](CO)C3)c2n1 [ABACAVIR SULFATE] | 0 |  | 0 | 0 | 0 | > 10 µM |  | > 10 µM | > 10 µM | > 10 µM | 102% | 104% | 94.3% | 98.4% | 95.1% |  |  |  |  |  | 99.9% | 102% | 97.1% | 106% | 99.7% | 101% | 95.2% | 97.7% | 90.3% | 96% | 89.4% | 96.3% | 97.7% | 100% | 97.1%
7 | Oc1ccc(Nc2nc(-c3ccc(Cl)cc3)cs2)cc1 [SKI-II] | 0 | 0 |  | 0 | 0.5 | > 10 µM | > 10 µM |  | > 10 µM | > 10 µM | 100% | 98.1% | 104% | 99.9% | 90% | 102% | 104% | 99.2% | 107% | 97.5% |  |  |  |  |  | 90.8% | 68.7% | 106% | 81.3% | 98% | 103% | 96.2% | 97.8% | 90.5% | 85.6%
8 | CC(=O)Nc1ccc(C(=O)O)cc1 [acedoben] | 0 |  | 0 | 0 | 0 | > 10 µM |  | > 10 µM | > 10 µM | > 10 µM | 88.6% | 100% | 95.6% | 86.4% | 109% |  |  |  |  |  | 97.4% | 104% | 97.3% | 98% | 102% | 114% | 110% | 107% | 96.8% | 104% | 101% | 99.4% | 96.7% | 100% | 108%
9 | C=CC[N@@+]12CC[C@@]34c5ccccc5N5/C=C6/[C@H]7C[C@H]8[C@@]9(CC[N@@+]8(CC=C)C/C7=C/CO)c7ccccc7N(/C=C(/[C@@H](C[C@@H]31)/C(=C\CO)C2)[C@H]54)[C@@H]69 [alcuronium] | 0 |  | 0 | 0 | 1 | > 10 µM |  | > 10 µM | > 10 µM | > 10 µM | 94.9% | 99.9% | 99.4% | 102% | 107% |  |  |  |  |  | 102% | 99% | 101% | 99.7% | 103% | 106% | 107% | 98.2% | 102% | 103% | 97.8% | 103% | 91.2% | 90.8% | 87.8%
10 | O=C1C2CC=CCC2C(=O)N1SC(Cl)(Cl)Cl (stereo unspecified) [captan] | 0 |  | 0 | 3.1 | 0 | > 10 µM |  | > 10 µM | > 10 µM | > 10 µM | 102% | 102% | 101% | 98.6% | 88.9% |  |  |  |  |  | 105% | 100% | 105% | 96.1% | 92.1% | 101% | 93.1% | 85.8% | 86.3% | 82.1% | 99.9% | 99.6% | 102% | 106% | 99.4%
11 | C[C@@H]1CC[C@@]2(OC1)O[C@H]1C[C@H]3[C@@H]4CC=C5C[C@@H](O[C@@H]6O[C@H](CO)[C@@H](O[C@@H]7O[C@@H](C)[C@H](O)[C@@H](O)[C@H]7O)[C@H](O)[C@H]6O[C@@H]6O[C@@H](C)[C@H](O)[C@@H](O)[C@H]6O)CC[C@]5(C)[C@H]4CC[C@]3(C)[C@H]1[C@@H]2C [dioscin] | 9.1 | 9.7 |  | 9.2 | 8.7 | 1.56 µM | 1.42 µM |  | 1.59 µM | 1.68 µM | 97.9% | 92.6% | 95.2% | 75.9% | 2.3% | 97% | 103% | 98.4% | 71.1% | 0.9% |  |  |  |  |  | 96.8% | 97.5% | 90.1% | 76.2% | -0.2% | 96.7% | 89.7% | 97.9% | 79.3% | 2.9%
12 | C[C@]12CC[C@@H]3c4ccc(O)cc4CC[C@H]3[C@@H]1CC[C@@H]2OC(=O)CCC1CCCC1 [estradiol-cypionate] | 0 |  | 0 | 0 | 0 | > 10 µM |  | > 10 µM | > 10 µM | > 10 µM | 99.9% | 106% | 85.4% | 97.2% | 90% |  |  |  |  |  | 99.6% | 104% | 99.2% | 100% | 96.7% | 103% | 96.5% | 105% | 95.8% | 98.8% | 82% | 90.4% | 103% | 93% | 102%
13 | CCCCCN(C)CCC(O)(P(=O)(O)O)P(=O)(O)O [ibandronate] | 0 |  |  | 0 | 0 | > 10 µM |  |  | > 10 µM | > 10 µM | 97% | 111% | 106% | 106% | 94.5% |  |  |  |  |  |  |  |  |  |  | 111% | 98% | 112% | 106% | 117% | 96.4% | 111% | 96% | 106% | 107%
14 | CN1C(C)(C)CCCC1(C)C [pempidine] | 0 | 0 |  | 0.1 | 0 | > 10 µM | > 10 µM |  | > 10 µM | > 10 µM | 102% | 89.1% | 95.1% | 99.5% | 109% | 97.4% | 100% | 95.1% | 95.7% | 94.4% |  |  |  |  |  | 96% | 103% | 98.1% | 105% | 84.7% | 114% | 105% | 98.3% | 107% | 110%
15 | CCn1cc(C(=O)O)c(=O)c2cnc(N3CCCC3)nc21 [piromidic-acid] | 0 |  | 0 | 0 | 0 | > 10 µM |  | > 10 µM | > 10 µM | > 10 µM | 103% | 90.3% | 97.6% | 97.1% | 93.7% |  |  |  |  |  | 99.8% | 98% | 100% | 99.1% | 102% | 93% | 104% | 96.9% | 103% | 99.3% | 101% | 74.8% | 95.1% | 87% | 98.6%
16 | CCC(NC(C)C)C(O)c1ccc(O)c2[nH]c(=O)ccc12 (stereo unspecified) [procaterol] | 0 |  | 0 | 0 | 0 | > 10 µM |  | > 10 µM | > 10 µM | > 10 µM | 84.2% | 107% | 89.9% | 99.6% | 92.8% |  |  |  |  |  | 101% | 105% | 96% | 104% | 101% | 110% | 93.9% | 103% | 97.4% | 95.4% | 92.1% | 104% | 105% | 110% | 95.9%
17 | O=C1NC(=O)[C@@H](c2cn3c4c(cccc24)CCC3)[C@@H]1c1c[nH]c2ccccc12 [tivantinib] | 7.7 | 12.7 | 10.1 | 11.1 | 5.3 | 0.688 µM | 0.331 µM | 0.648 µM | 0.311 µM |  | 107% | 94.3% | 103% | 60.2% | 44.7% | 97.3% | 99.8% | 92.8% | 36.5% | 28.2% | 102% | 102% | 95.1% | 51.9% | 26.2% | 108% | 96.5% | 99.5% | 39.5% | 41.5% | 98.3% | 94.1% | 98.9% | 72.6% | 59.6%
